Data as given in PMC6943441, “The Meta-Position of Phe^4 in Leu-Enkephalin Regulates Potency, Selectivity, Functional Activity, and Signaling Bias at the Delta and Mu Opioid Receptors” (Molecules, 2019).
Where two headings read alike, the source gives them in different places.

Legend:
FLAG-mouse δOR = molecular target: T1, FLAG-mouse δOR (Mus musculus, UniProt P32300); experiment: cAMP GloSensor inhibition assay in HEK 293 cells; format: cell-based; conditions: for IC50: HEK 293, forskolin 30 µM; for LogR (δOR) cAMP: operational model Log R (τ/KA); for cAMP δOR Efficacy (%+SD): relative to Leu-enkephalin = 100
T1 construct: FLAG; expressed in transfected cells; host or cells: HEK 293
T1 sequence (P32300 whole entry): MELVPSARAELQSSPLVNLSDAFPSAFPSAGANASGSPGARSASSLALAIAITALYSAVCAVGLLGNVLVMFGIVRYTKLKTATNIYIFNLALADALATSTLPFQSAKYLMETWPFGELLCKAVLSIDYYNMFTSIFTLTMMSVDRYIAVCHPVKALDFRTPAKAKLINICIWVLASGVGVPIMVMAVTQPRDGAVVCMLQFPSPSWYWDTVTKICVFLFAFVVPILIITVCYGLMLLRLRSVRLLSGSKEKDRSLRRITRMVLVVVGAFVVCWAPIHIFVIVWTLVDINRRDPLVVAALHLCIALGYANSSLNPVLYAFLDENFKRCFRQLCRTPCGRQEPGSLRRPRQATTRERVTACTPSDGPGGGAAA
Experimental: (§1) In brief, for cAMP inhibition assays HEK 293 (Life Technologies, Grand Island, NY, USA) cells were transiently transfected in a 1:3 ratio with FLAG-mouse δOR, or HA-mouse µOR and pGloSensor22F-cAMP plasmids (Promega, Madison, WI, USA) using Xtremegene9 (Sigma). Two days post-transfection cells (20,000 cells/well, 7.5 µL) were seeded in low volume Greiner 384-well plates (#82051-458, VWR, Batavia, IL, USA) and were incubated with Glosensor reagent (Promega, 7.5 µL, 2% final concentration) for 90 min at room temperature. […] For β-arrestin recruitment assays, CHO-human µOR PathHunter β-arrestin 2 cells or CHO-human δOR PathHunter β-arrestin 2 cells (DiscoverX, Fremont, CA, USA) were plated (2,500 cells/well, 10 µL) one day prior to stimulation with 2.5 µL drug solution for 90 min at 37 °C/5% CO2, after which cells were incubated with 6 µL cell PathHunter assay buffer (DiscoverX) for 60 min at room temperature as per the manufacturer’s protocol. Luminescence for each of these assays was measured using a FlexStation3 plate reader (Molecular Devices, Sunnyvale, CA, USA).
(§2) All data are presented as means ± standard error of the mean, and analysis was performed using GraphPad Prism 8 software (GraphPad Software, La Jolla, CA). For in vitro assays, nonlinear regression was conducted to determine pIC50 (cAMP) or pEC50 (β-arrestin 2 recruitment). […] The averages of each independent run were counted as a single experiment and combined to provide a composite curve in favor of providing a ‘representative’ curve. In each experimental run, a positive control/reference compound was utilized to allow the data to be normalized and to calculate the log bias value. A minimum of three independent values were obtained for each compound in each of the cellular assays.

HA-mouse µOR = molecular target: T2, HA-mouse µOR (Mus musculus, UniProt P42866); experiment: cAMP GloSensor inhibition assay in HEK 293 cells; format: cell-based; conditions: for LogR (µOR) cAMP: operational model Log R (τ/KA); for cAMP µOR Efficacy (%+SD): relative to DAMGO = 100; for IC50: HEK 293, forskolin 30 µM
T2 construct: HA; expressed in transfected cells; host or cells: HEK 293
T2 sequence (P42866 whole entry): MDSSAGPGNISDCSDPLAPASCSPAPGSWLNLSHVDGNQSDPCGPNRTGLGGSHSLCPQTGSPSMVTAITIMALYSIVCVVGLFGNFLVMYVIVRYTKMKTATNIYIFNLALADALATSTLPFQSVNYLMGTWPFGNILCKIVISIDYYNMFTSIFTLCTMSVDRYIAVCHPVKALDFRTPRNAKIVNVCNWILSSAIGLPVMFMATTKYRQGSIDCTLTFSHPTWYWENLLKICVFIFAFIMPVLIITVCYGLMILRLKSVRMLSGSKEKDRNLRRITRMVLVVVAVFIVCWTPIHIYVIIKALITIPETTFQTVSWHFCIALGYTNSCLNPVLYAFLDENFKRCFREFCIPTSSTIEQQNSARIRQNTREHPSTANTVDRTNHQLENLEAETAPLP
Experimental: as §1, §2

µOR [1] = molecular target: T3, µOR (Homo sapiens, UniProt P35372); experiment: cell-based; format: cell-based
T3 sequence (P35372 whole entry): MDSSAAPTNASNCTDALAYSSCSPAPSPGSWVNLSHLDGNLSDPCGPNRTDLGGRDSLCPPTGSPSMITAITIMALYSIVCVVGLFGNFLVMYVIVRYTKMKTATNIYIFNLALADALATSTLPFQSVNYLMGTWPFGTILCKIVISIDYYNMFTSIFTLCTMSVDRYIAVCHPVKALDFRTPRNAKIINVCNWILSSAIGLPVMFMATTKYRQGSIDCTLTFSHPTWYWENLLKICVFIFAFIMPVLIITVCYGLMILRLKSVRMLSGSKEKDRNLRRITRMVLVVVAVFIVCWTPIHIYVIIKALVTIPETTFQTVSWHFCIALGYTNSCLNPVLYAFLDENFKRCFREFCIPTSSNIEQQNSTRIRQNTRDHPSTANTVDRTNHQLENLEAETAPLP
Experimental: as §1, §2

Rat plasma stability = conditions: for Degradation Products (First Appearance): rat plasma, UPLC-mass spectrometry, time of first appearance in parentheses; for half-life: rat, plasma
Experimental: Peptides were synthesized using an Aapptec Focus XC automated peptide synthesizer coupled with a heating system using a solid phase peptide synthesis protocol using Fmoc chemistry. Preparative RP-HPLC was performed using an appropriate column and solvent system (described below) and final purity of peptides was determined by UV area % from UPLC analysis. Peptides were purified by Teledyne ISCO EZ Prep system on RediSep® C18 Prep column (30 × 250 mm, 100 Å). […] Plasma stability was also assessed using the above UPLC column and solvent gradient program using a Waters H class Plus Acquity UPLC system coupled with a QDa detector using protocol B.
Sprague Dawley rat plasma containing K2-ethylenediaminetetraacetic acid (Innovative Research, MI, USA) was transferred into 300 µL aliquots and stored at −20 °C until use. […] After adding analog, an aliquot of the mixture was removed at each indicated time point (0, 5, 10, 15, 20, 30, 60, 120, 240 min) and immediately quenched with 100 μL of a methanol solution containing 20 μM Fmoc-Leu-OH as an internal standard. […] Then, the filtrate was transferred into vials and a 5 μL sample of the resulting solution was analyzed on an UPLC system coupled with a QDa detector. […] Determination of half-life (t1/2) was carried out by using the GraphPad Prism one-phase decay method.

µOR [2] = molecular target: T3, µOR; experiment: Bias factor calculation (operational model, cAMP vs β-arrestin 2); conditions: DAMGO as reference, >1 = more G protein-biased
Experimental: Bias factors were calculated using the operational model equation in Prism 8 to calculate Log R (τ/KA) (Table S2) as previously described [12]. […] A bias factor > 1 meant that the agonist was more G protein-biased than the reference compound; A bias factor < 1 meant that the agonist was less G protein-biased than the reference compound.

µOR [3] = molecular target: T3, µOR; experiment: Competition radioligand binding, [3H]DAMGO
Experimental: Next, 100 µL of membrane suspension containing 7 µg protein was added to the agonist wells and incubated for 90 min at room temperature. The reaction mixture was then filtered over a GF-B filter plate (Perkin Elmer) followed by four quick washes with ice-cold 50 mM Tris HCl. The plate was dried overnight, after which 50 µL scintillation fluid (Ultimagold uLLT) was added and radioactivity was counted on a Packard TopCount NXT scintillation counter. All working solutions were prepared in a radioligand assay buffer containing 50 mM Tris HCl, 10 mM MgCl2, and 1 mM ethylenediaminetetraacetic acid at pH 7.4.

SMILES	IC50 (FLAG-mouse δOR; read-out: cAMP IC50 (nM) δOR) [nM]	IC50 (FLAG-mouse δOR; read-out: cAMP pIC50 ± SEM (δOR) (converted)) [nM]	LogR (δOR) cAMP (FLAG-mouse δOR)	cAMP δOR Efficacy (%+SD) (FLAG-mouse δOR) [%]	LogR (µOR) cAMP (HA-mouse µOR)	cAMP µOR Efficacy (%+SD) (HA-mouse µOR) [%]	EC50 (µOR [1]) [nM]	LogR (µOR) β-arr2 (µOR [1])	β-Arrestin 2 µOR Efficacy (% + SEM) (µOR [1]) [%]	Degradation Products (First Appearance) (Rat plasma stability)	half-life (Rat plasma stability) [min]	Bias Factor µOR (DG = Ref) (µOR [2])	IC50 (HA-mouse µOR; read-out: cAMP IC50 (nM) µOR) [nM]	Ki (µOR [3]) [nM]	IC50 (HA-mouse µOR; read-out: cAMP pIC50 ± SEM (µOR) (converted)) [nM]	Bias Factor µOR (DG = Ref) (µOR [2]; listed as 1f (OMe))	β-Arrestin 2 µOR Efficacy (% + SEM) (µOR [1]; relative to DAMGO = 100%) [%]	cAMP µOR Efficacy (%+SD) (HA-mouse µOR; listed as Leu-enkephalin) [%]
CC(C)C[C@H](NC(=O)[C@H](Cc1cccc(F)c1)NC(=O)CNC(=O)CNC(=O)[C@@H](N)Cc1ccc(O)cc1)C(=O)O [Compound 1a, H2N-Tyr-Gly-Gly-(meta-F)Phe-Leu-OH]	0.39	0.339	9.4	95 ± 6	8.0	98 ± 6	575	5.8	75 ± 13	Gly-Gly-(meta-F)Phe-Leu (5 min) (meta-F)Phe-Leu (60 min)	82.3	22.2	–	–	–	–	–	–
CC(C)C[C@H](NC(=O)[C@H](Cc1cccc(Cl)c1)NC(=O)CNC(=O)CNC(=O)[C@@H](N)Cc1ccc(O)cc1)C(=O)O [Compound 1b, H2N-Tyr-Gly-Gly-(meta-Cl)Phe-Leu-OH]	0.022	–	10.6	94 ± 5	7.5	99 ± 7	67.6	7.2	96 ± 8	Gly-Gly-(meta-Cl)Phe-Leu (5 min) (meta-Cl)Phe-Leu (30 min)	37.8	0.3	30.2	–	–	–	–	–
CC(C)C[C@H](NC(=O)[C@H](Cc1cccc(Br)c1)NC(=O)CNC(=O)CNC(=O)[C@@H](N)Cc1ccc(O)cc1)C(=O)O [Compound 1c, H2N-Tyr-Gly-Gly-(meta-Br)Phe-Leu-OH]	0.03	–	10.5	96 ± 4	8.1	104 ± 11	35.5	7.2	79 ± 6	Gly-Gly-(meta-Br)Phe-Leu (5 min) (meta-Br)Phe-Leu (15 min)	21.5	1.2	–	0.13	10	–	–	–
CC(C)C[C@H](NC(=O)[C@H](Cc1cccc(I)c1)NC(=O)CNC(=O)CNC(=O)[C@@H](N)Cc1ccc(O)cc1)C(=O)O [Compound 1d]	0.025	–	–	97 ± 4	8.0	94 ± 11	46.8	6.6	70 ± 3	Gly-Gly-(meta-I)Phe-Leu (5 min) (meta-I)Phe-Leu (15 min)	13.2	3.2	4.27	0.14	–	–	–	–
Cc1cccc(C[C@H](NC(=O)CNC(=O)CNC(=O)[C@@H](N)Cc2ccc(O)cc2)C(=O)N[C@@H](CC(C)C)C(=O)O)c1 [Compound 1e]	0.039	–	10	92 ± 8	8.1	85 ± 10	186	6.1	71 ± 3	Gly-Gly-(meta-Me)Phe-Leu (5 min) (meta-Me)Phe-Leu (20 min)	39.5	11.5	3.72	0.14	–	–	–	–
COc1cccc(C[C@H](NC(=O)CNC(=O)CNC(=O)[C@@H](N)Cc2ccc(O)cc2)C(=O)N[C@@H](CC(C)C)C(=O)O)c1 [Compound 1f]	0.14	–	9.8	98 ± 10	7.4	87 ± 5	589	5.6	67 ± 3	Gly-Gly-(meta-OMe)Phe-Leu (5 min) (meta-OMe)Phe-Leu (20 min)	46.1	–	8.12	–	–	8.4	–	–
CC(C)C[C@H](NC(=O)[C@H](Cc1cccc(C(F)(F)F)c1)NC(=O)CNC(=O)CNC(=O)[C@@H](N)Cc1ccc(O)cc1)C(=O)O [Compound 1g]	0.11	–	9.7	92 ± 8	8.1	90 ± 4	56.2	6.6	71 ± 3	Gly-Gly-(meta-CF3)Phe-Leu (5 min) (meta- CF3)Phe-Leu (30 min)	44.5	4.3	2.45	–	–	–	–	–
CC(C)C[C@H](NC(=O)[C@H](Cc1cccc(C#N)c1)NC(=O)CNC(=O)CNC(=O)[C@@H](N)Cc1ccc(O)cc1)C(=O)O [Compound 1h]	0.35	–	9.3	100 ± 3	7.5	92 ± 13	158	5.9	68 ± 4	Gly-Gly-(meta-CN)Phe-Leu (5 min) (meta-CN)Phe-Leu (20 min)	33	5.4	12	0.3	–	–	–	–
C[C@@H](NC(=O)[C@@H](N)Cc1ccc(O)cc1)C(=O)NCC(=O)N(C)[C@@H](Cc1ccccc1)C(=O)NCCO [DAMGO, (D-Ala^2, N-MePhe^4, Gly-ol) enkephalin, reference compound]	–	–	–	–	7.8	100	–	–	–	–	–	1	–	–	–	–	100	–
CC(C)C[C@H](NC(=O)[C@H](Cc1ccccc1)NC(=O)CNC(=O)CNC(=O)[C@@H](N)Cc1ccc(O)cc1)C(=O)O [Leu^5-enkephalin, Tyr^1-Gly^2-Gly^3-Phe^4-Leu^5, reference compound]	–	–	–	100	–	100	–	–	–	Gly-Gly-Phe-Leu (5 min) Phe-Leu (10 min)	–	–	–	–	–	–	–	100 ± 9
